Results reported in PMC10707724, “Dual Effects of 3-epi-betulin from Daphniphyllum glaucescens in Suppressing SARS-CoV-2-Induced Inflammation and Inhibiting Virus Entry” (International Journal of Molecular Sciences, 2023).

What was measured:
Type in all cases: cell-based
[1] = test system: SARS-CoV-2 Omicron (BA.1); assay: microbe, parasite or virus in culture; conditions: Omicron (BA.1), compared with the other variants
SARS-CoV-2 SEMpv (D614G) = conditions: read-out: EC50, pseudovirus entry
SARS-CoV-2 SEMpv (N501Y) = conditions: read-out: EC50, pseudovirus entry

SMILES: C=C(C)[C@@H]1CC[C@]2(CO)CC[C@]3(C)[C@H](CC[C@@H]4[C@@]5(C)CC[C@@H](O)C(C)(C)[C@@H]5CC[C@]43C)[C@@H]12 [Compound 5, 3-epi-Betulin]
- inhibition activity against variant, in words [1]: did not perform as well
- EC50 (SARS-CoV-2 SEMpv (D614G)): 12.5 µM
- EC50 (SARS-CoV-2 SEMpv (N501Y)): 13.1 µM
